Measured values from the supplement of paper PMC10307832.

Key:
Assay in all cases: relative viability (nuclei count vs DMSO), 5 days (fraction); higher = more cells survive
Cediranib + Palbociclib = compound: COc1cc2c(Oc3ccc4[nH]c(C)cc4c3F)ncnc2cc1OCCCN1CCCC1 [Cediranib] + CC(=O)c1c(C)c2cnc(Nc3ccc(N4CCNCC4)cn3)nc2n(C2CCCC2)c1=O [Palbociclib] (partner 0.5 µM)
Method in brief: (§1)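 Relative viability is defined as nuclei in treated wells over nuclei in vehicle wells. Duplicate plates were run and medians reported. Lung cancer cell lines in 1536-well plates were dosed by pin tool one day after seeding, with one drug or with a fixed anchor-drug dose plus five library-drug doses (not always all listed) in √10 steps, and nuclei were counted after 5 days.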

Decitabine + Foretinib = compound: Nc1ncn([C@H]2C[C@H](O)[C@@H](CO)O2)c(=O)n1 [Decitabine] + COc1cc2c(Oc3ccc(NC(=O)C4(C(=O)Nc5ccc(F)cc5)CC4)cc3F)ccnc2cc1OCCCN1CCOCC1 [Foretinib] (partner 0.25 µM)
Method in brief: as §1

Cediranib + Decitabine = compound: COc1cc2c(Oc3ccc4[nH]c(C)cc4c3F)ncnc2cc1OCCCN1CCCC1 [Cediranib] + Nc1ncn([C@H]2C[C@H](O)[C@@H](CO)O2)c(=O)n1 [Decitabine] (partner 2 µM)
Method in brief: as §1

[1] = compound: O=C(C[C@H]1NCCC[C@@H]1O)Cn1cnc2cc(Br)c(Cl)cc2c1=O (racemic) [Halofuginone] + C[C@]1(O)C[C@@H](c2nc(-c3ccc4ccc(-c5ccccc5)nc4c3)c3c(N)nccn32)C1 [Linsitinib] (partner 1 µM)
Method in brief: as §1

Cell Line | relative viability (Cediranib + Palbociclib; first compound 0.04 µM) | relative viability (Cediranib + Palbociclib; first compound 0.1265 µM) | relative viability (Cediranib + Palbociclib; first compound 0.4 µM) | relative viability (Cediranib + Palbociclib; first compound 1.265 µM) | relative viability (Cediranib + Palbociclib; first compound 4 µM) | relative viability (Decitabine + Foretinib; first compound 0.04 µM) | relative viability (Decitabine + Foretinib; first compound 0.1265 µM) | relative viability (Decitabine + Foretinib; first compound 0.4 µM) | relative viability (Decitabine + Foretinib; first compound 1.265 µM) | relative viability (Decitabine + Foretinib; first compound 4 µM) | relative viability (Cediranib + Decitabine; first compound 0.04 µM) | relative viability (Cediranib + Decitabine; first compound 0.1265 µM) | relative viability (Cediranib + Decitabine; first compound 0.4 µM) | relative viability (Cediranib + Decitabine; first compound 1.265 µM) | relative viability (Cediranib + Decitabine; first compound 4 µM) | relative viability ([1]; first compound 0.001 µM) | relative viability ([1]; first compound 0.003162 µM) | relative viability ([1]; first compound 0.01 µM) | relative viability ([1]; first compound 0.03162 µM) | relative viability ([1]; first compound 0.1 µM)
RERF-LC-KJ | 1.15 | 1.02 | 1 | 1.15 | 1.13 | 0.877 | 0.84 | 0.741 | 0.689 | 0.635 | 0.657 | 0.629 | 0.715 | 0.666 | 0.684 | 0.972 | 0.932 | 0.843 | 0.891 | 0.967
SK-LU-1 | 0.434 | 0.441 | 0.385 | 0.375 | 0.383 | 0.686 | 0.674 | 0.376 | 0.356 | 0.356 | 0.657 | 0.638 | 0.636 | 0.613 | 0.73 | 1.18 | 0.559 | 1.14 | 0.912 | 0.58
SK-MES-1 | 0.304 | 0.311 | 0.328 | 0.283 | 0.324 | 0.688 | 0.758 | 0.697 | 0.407 | 0.309 | 0.427 | 0.394 | 0.436 | 0.384 | 0.387 | 1.14 | 1.05 | 1.01 | 0.812 | 0.552
SW 1573 | 0.362 | 0.412 | 0.394 | 0.389 | 0.382 | 0.769 | 0.891 | 0.793 | 0.591 | 0.49 | 0.606 | 0.685 | 0.542 | 0.408 | 0.553 | 0.902 | 0.796 | 0.704 | 0.683 | 0.35
